Reference: ChEMBL document CHEMBL1141489, “A highly efficient route to enantiomerically pure l-N-Bz-Pmp(t-Bu)2-OH and incorporation into a peptide-based protein tyrosine phosphatase inhibitor” (Bioorg Med Chem Lett, 2008)
The source made the active and inactive calls. The rule behind the calls is not given here. Square brackets hold non-standard residues; d marks the D form. Peptide text beside a SMILES is read from it. Pmp = N[C@@H](Cc1ccc(CP(=O)(O)O)cc1)C(=O)O

Assays:
[1] = molecular target: T1, Receptor-type tyrosine-protein phosphatase C (Homo sapiens, UniProt P08575); experiment: Inhibition of CD45
T1 sequence (P08575 whole entry): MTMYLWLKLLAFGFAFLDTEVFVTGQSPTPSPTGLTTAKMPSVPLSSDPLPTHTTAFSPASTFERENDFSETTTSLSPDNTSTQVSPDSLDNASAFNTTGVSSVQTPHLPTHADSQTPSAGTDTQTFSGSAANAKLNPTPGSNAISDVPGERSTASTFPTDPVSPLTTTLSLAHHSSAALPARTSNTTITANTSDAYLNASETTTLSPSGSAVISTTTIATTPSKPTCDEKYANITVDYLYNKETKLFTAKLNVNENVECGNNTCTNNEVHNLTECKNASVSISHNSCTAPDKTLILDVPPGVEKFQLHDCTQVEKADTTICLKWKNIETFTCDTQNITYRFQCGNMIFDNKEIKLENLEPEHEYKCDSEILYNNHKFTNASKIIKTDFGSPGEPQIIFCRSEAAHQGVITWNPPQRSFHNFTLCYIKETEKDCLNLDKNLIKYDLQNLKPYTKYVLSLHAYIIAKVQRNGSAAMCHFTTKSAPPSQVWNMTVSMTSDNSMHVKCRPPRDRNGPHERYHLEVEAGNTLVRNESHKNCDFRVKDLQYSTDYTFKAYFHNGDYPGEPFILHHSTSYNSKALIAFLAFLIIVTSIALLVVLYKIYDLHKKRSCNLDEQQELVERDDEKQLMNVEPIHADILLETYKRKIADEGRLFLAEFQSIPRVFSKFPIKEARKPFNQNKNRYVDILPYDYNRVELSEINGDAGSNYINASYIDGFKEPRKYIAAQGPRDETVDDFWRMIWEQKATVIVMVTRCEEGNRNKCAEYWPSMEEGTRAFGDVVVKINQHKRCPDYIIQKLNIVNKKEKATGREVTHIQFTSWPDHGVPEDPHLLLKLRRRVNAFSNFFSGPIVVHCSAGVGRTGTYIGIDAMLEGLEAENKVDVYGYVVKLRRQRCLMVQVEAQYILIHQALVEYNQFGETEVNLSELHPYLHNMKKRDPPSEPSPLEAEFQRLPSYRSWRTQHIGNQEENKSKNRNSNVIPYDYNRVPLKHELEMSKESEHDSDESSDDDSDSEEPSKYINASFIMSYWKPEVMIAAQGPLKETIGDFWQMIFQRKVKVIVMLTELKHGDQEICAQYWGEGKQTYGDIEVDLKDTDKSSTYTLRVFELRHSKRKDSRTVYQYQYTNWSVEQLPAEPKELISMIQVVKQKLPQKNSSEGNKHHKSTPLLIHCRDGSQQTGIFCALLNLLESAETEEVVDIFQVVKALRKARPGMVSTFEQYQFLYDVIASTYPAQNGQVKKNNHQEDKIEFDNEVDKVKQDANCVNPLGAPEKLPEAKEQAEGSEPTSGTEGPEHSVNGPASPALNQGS

[2] = molecular target: T2, Tyrosine-protein phosphatase non-receptor type 2 (Homo sapiens) (UniProt P17706); experiment: Inhibition of TCPTP upto 120 uM
T2 sequence (whole entry): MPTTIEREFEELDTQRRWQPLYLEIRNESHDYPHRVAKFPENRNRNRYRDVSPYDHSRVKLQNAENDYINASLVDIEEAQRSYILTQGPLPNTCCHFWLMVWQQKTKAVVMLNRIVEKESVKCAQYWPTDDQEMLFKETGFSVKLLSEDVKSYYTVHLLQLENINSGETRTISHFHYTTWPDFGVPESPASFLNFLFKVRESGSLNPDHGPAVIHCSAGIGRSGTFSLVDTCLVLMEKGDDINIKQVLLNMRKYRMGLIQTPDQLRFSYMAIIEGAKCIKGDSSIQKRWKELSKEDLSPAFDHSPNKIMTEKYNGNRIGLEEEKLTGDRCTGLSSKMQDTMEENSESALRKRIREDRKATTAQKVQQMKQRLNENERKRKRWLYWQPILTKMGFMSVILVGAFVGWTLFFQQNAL

For `CC(=O)N[C@H](C(=O)N[C@@H](CCC(=O)O)C(=O)NCC(=O)N[C@@H](CCC(N)=O)C(=O)N[C@@H](Cc1ccc(CP(=O)(O)O)cc1)C(=O)N[C@@H](CCC(N)=O)C(=O)N1CCC[C@H]1C(=O)N[C@@H](CCC(N)=O)C(=O)N1CCC[C@H]1C(N)=O)[C@@H](C)O` (Ac-TEGQ[Pmp]QPQP-NH2), the IC50 [1] was 100 µM and the Activity [2] was “inactive”.
